Reference: ChEMBL document CHEMBL3526033, “Identification of human liver cytochrome P450 enzymes involved in the metabolism of SCH 530348 (Vorapaxar), a potent oral thrombin protease-activated receptor 1 antagonist” (Drug Metab Dispos, 2011)

Columns and labels:
Cytochrome P450 3A5 [1] = molecular target: T1, Cytochrome P450 3A5 (Homo sapiens, UniProt P20815); assay: Drug level assessed as human recombinant CYP3A5-mediated drug metabolism treated with 25 uM [14C]vorapaxar after 120 mins by LC-MS/MS analysis in presence of NADPH; type: ADME; details: recombinant enzyme, 2 h
T1 sequence (P20815 whole entry): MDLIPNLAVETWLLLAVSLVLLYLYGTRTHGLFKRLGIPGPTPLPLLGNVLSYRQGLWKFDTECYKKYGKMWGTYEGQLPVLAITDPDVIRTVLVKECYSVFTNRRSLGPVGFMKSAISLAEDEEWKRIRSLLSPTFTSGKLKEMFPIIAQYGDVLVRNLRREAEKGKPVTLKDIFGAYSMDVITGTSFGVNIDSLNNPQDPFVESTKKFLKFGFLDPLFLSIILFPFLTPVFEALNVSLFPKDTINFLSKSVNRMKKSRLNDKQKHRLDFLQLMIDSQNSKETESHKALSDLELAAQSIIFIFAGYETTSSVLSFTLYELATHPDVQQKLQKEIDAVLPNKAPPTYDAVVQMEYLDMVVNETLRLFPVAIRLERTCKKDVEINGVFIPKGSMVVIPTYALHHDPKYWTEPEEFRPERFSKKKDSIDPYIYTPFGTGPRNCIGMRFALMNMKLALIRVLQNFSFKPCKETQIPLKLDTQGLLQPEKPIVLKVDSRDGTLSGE

Cytochrome P450 1A2 [2] = molecular target: T2, Cytochrome P450 1A2 (Homo sapiens, UniProt P05177); assay: Drug level assessed as human recombinant CYP1A2-mediated drug metabolism treated with 25 uM [14C]vorapaxar after 120 mins by LC-MS/MS analysis in presence of NADPH; type: ADME; details: recombinant enzyme, 2 h
T2 sequence (P05177 whole entry): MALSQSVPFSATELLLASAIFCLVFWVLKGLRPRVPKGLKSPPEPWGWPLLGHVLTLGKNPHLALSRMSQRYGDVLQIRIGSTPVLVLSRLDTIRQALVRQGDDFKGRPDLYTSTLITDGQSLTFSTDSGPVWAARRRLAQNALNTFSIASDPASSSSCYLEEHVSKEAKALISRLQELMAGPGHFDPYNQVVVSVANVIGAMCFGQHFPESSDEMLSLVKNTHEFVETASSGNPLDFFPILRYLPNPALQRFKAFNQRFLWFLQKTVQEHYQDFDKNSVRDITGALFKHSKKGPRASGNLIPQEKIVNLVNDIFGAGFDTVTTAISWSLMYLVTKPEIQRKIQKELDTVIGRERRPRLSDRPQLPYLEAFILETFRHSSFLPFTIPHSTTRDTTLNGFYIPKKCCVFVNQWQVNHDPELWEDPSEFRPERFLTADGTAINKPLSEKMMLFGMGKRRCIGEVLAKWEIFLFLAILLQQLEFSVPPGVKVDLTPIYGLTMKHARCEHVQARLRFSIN

Cytochrome P450 4F3 = molecular target: T3, Cytochrome P450 4F3 (Homo sapiens, UniProt Q08477); assay: Drug level assessed as human recombinant CYP4F3A-mediated drug metabolism treated with 25 uM [14C]vorapaxar after 120 mins by LC-MS/MS analysis in presence of NADPH; type: ADME; details: recombinant enzyme, 2 h
T3 sequence (Q08477 whole entry): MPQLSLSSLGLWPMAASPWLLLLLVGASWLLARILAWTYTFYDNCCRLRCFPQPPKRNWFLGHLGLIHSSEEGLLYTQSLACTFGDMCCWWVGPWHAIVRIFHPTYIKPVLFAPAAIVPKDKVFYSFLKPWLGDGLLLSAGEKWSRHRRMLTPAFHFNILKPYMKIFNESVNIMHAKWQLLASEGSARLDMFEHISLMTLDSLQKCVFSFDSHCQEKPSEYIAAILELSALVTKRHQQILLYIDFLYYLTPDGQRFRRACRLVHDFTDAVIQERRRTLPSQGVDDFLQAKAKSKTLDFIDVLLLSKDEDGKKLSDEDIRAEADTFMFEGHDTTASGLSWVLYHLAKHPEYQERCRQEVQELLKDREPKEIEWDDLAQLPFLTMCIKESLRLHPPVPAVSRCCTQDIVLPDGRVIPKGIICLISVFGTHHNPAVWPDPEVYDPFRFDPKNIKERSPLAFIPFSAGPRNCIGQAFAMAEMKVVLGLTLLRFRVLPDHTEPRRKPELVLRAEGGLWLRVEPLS

Cytochrome P450 1A1 [3] = molecular target: T4, Cytochrome P450 1A1 (Homo sapiens, UniProt P04798); assay: Drug level assessed as human recombinant CYP1A1-mediated drug metabolism treated with 25 uM [14C]vorapaxar after 120 mins by LC-MS/MS analysis in presence of NADPH; type: ADME; details: recombinant enzyme, 2 h
T4 sequence (P04798 whole entry): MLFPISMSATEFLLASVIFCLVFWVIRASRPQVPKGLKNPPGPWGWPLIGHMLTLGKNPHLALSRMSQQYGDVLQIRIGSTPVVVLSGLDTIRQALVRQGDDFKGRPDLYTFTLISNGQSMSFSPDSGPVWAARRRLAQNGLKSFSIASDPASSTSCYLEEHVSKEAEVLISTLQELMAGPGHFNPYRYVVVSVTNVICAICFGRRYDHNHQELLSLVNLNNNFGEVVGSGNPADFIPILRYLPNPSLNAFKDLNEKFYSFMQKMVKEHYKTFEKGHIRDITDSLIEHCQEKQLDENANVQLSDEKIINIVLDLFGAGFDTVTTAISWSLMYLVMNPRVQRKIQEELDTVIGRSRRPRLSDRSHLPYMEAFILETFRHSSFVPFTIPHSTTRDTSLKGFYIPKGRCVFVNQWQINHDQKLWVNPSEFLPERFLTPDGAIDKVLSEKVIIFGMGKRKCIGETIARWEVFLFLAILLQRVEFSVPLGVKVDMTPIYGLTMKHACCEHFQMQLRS

Cytochrome P450 2C19 [4] = molecular target: T5, Cytochrome P450 2C19 (Homo sapiens, UniProt P33261); assay: Drug level assessed as human recombinant CYP2C19-mediated drug metabolism treated with 25 uM [14C]vorapaxar after 120 mins by LC-MS/MS analysis in presence of NADPH; type: ADME; details: recombinant enzyme, 2 h
T5 sequence (P33261 whole entry): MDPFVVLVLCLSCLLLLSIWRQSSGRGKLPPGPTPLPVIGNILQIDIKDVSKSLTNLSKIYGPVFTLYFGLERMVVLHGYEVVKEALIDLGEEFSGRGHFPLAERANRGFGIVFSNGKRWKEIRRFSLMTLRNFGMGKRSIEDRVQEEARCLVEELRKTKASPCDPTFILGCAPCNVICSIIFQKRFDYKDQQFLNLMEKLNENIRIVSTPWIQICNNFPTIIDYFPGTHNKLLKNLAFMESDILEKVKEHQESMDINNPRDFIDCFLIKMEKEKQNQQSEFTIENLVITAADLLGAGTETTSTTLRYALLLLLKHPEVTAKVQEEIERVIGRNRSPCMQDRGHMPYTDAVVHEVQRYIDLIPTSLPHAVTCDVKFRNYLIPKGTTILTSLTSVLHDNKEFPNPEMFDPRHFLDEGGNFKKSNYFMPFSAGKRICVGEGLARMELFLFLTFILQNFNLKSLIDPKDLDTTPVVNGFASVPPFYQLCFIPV

Cytochrome P450 3A4 [5] = molecular target: T6, Cytochrome P450 3A4 (Homo sapiens, UniProt P08684); assay: Drug level in human liver microsomes assessed as CYP3A4-mediated drug metabolism at 25 uM after 120 mins by LC-MS/MS analysis; type: ADME; details: 2 h
T6 sequence (P08684 whole entry): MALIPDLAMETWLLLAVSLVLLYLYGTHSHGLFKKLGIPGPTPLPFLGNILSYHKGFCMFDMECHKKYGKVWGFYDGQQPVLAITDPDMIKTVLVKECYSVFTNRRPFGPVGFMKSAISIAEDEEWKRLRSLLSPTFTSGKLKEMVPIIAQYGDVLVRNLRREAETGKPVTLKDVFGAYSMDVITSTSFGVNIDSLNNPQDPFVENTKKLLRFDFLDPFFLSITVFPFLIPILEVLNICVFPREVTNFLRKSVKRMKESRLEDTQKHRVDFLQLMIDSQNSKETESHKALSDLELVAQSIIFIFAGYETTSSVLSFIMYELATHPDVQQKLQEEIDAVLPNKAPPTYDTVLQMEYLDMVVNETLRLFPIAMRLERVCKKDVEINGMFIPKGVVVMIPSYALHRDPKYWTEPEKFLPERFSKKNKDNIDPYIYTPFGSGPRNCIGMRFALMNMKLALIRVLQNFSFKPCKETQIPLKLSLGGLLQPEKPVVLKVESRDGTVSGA

Cytochrome P450 2J2 = molecular target: T7, Cytochrome P450 2J2 (Homo sapiens, UniProt P51589); assay: Drug level in human liver microsomes assessed as CYP2J2-mediated drug metabolism at 25 uM after 120 mins by LC-MS/MS analysis; type: ADME; details: 2 h
T7 sequence (P51589 whole entry): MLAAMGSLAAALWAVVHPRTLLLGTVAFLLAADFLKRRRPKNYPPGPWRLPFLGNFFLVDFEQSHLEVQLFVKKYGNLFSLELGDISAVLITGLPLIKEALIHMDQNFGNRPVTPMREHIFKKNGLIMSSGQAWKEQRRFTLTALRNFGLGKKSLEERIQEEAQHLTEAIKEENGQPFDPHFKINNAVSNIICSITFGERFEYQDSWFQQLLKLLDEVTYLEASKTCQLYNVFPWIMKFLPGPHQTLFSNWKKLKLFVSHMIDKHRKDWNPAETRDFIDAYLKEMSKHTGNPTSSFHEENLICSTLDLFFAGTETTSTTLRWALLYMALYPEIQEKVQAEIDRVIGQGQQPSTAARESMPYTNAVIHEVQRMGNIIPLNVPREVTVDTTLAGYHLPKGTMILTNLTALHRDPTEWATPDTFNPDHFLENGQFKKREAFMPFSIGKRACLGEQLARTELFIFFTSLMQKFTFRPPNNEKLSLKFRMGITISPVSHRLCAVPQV

Liver microsome [6] = assay: Drug level in human liver microsomes treated with 10 to 25 uM vorapaxar after 120 mins by LC-MS/MS analysis in presence of sulfaphenazole; type: ADME; details: 2 h
Liver microsome [7] = assay: Drug level in human liver microsomes treated with 10 to 25 uM vorapaxar after 120 mins by LC-MS/MS analysis in presence of quinidine; type: ADME; details: 2 h
Liver microsome [8] = assay: Drug level in human liver microsomes treated with 10 to 25 uM vorapaxar after 120 mins by LC-MS/MS analysis in presence of omeprazole; type: ADME; details: 2 h
Liver microsome [9] = assay: Drug level in human liver microsomes treated with 10 to 25 uM vorapaxar after 120 mins by LC-MS/MS analysis in presence of alpha-napthoflavone; type: ADME; details: 2 h
Liver microsome [10] = assay: Drug level in human liver microsomes treated with 10 to 25 uM vorapaxar after 120 mins by LC-MS/MS analysis in presence of CYP3A4-specific inhibitory antibody; type: ADME; details: 2 h
Liver microsome [11] = assay: Drug metabolism in human liver microsomes treated with 10 uM [14C]vorapaxar after 120 mins by LC-MS/MS analysis; type: ADME; details: 2 h
[12] = Drug metabolism in human liver S9 fraction treated with 10 uM [14C]vorapaxar after 120 mins by LC-MS/MS analysis; type: ADME, subcellular; details: s9, 2 h
Cytochrome P450 1A1 [13] = molecular target: T4, Cytochrome P450 1A1; assay: Activity of human recombinant CYP1A1 assessed as enzyme-mediated drug metabolism treated with 10 uM [14C]vorapaxar after 120 mins by LC-MS/MS analysis in presence of NADPH; type: ADME; details: 2 h
Cytochrome P450 1A2 [14] = molecular target: T2, Cytochrome P450 1A2; assay: Activity of human recombinant CYP1A2 assessed as enzyme-mediated drug metabolism treated with 10 uM [14C]vorapaxar after 120 mins by LC-MS/MS analysis in presence of NADPH; type: ADME; details: 2 h
Cytochrome P450 2C9 = Cytochrome P450 2C9 (Homo sapiens, UniProt P11712); assay: Activity of human recombinant CYP2C9 assessed as enzyme-mediated drug metabolism treated with 10 uM [14C]vorapaxar after 120 mins by LC-MS/MS analysis in presence of NADPH; type: ADME; details: 2 h
Cytochrome P450 2C9, sequence (P11712 whole entry): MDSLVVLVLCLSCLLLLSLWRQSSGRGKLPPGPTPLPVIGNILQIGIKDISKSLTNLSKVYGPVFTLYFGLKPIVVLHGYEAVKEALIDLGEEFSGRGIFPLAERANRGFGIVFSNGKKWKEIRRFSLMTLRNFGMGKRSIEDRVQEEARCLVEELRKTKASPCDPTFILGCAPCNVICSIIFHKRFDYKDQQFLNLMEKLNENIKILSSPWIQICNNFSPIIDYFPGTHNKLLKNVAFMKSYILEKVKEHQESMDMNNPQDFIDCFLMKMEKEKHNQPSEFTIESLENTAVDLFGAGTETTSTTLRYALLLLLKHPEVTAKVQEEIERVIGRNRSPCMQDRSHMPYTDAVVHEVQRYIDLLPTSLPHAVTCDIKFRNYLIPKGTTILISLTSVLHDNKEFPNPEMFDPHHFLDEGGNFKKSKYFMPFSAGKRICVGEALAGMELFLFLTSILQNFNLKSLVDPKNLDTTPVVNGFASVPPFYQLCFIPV

Cytochrome P450 2C19 [15] = molecular target: T5, Cytochrome P450 2C19; assay: Activity of human recombinant CYP2C19 assessed as enzyme-mediated drug metabolism treated with 10 uM [14C]vorapaxar after 120 mins by LC-MS/MS analysis in presence of NADPH; type: ADME; details: 2 h
Cytochrome P450 3A4 [16] = molecular target: T6, Cytochrome P450 3A4; assay: Activity of human recombinant CYP3A4 assessed as enzyme-mediated drug metabolism treated with 10 uM [14C]vorapaxar after 120 mins by LC-MS/MS analysis in presence of NADPH; type: ADME; details: 2 h
Cytochrome P450 3A5 [17] = molecular target: T1, Cytochrome P450 3A5; assay: Activity of human recombinant CYP3A5 assessed as enzyme-mediated drug metabolism treated with 10 uM [14C]vorapaxar after 120 mins by LC-MS/MS analysis in presence of NADPH; type: ADME; details: 2 h

For C[C@H]1OC(=O)[C@@H]2C[C@@H]3C[C@H](N)CC[C@H]3[C@H](/C=C/c3ccc(-c4cccc(F)c4)cn3)[C@H]12, the Drug metabolism (Cytochrome P450 3A5 [1]) was “metabolite_detected”, the Drug metabolism (Cytochrome P450 1A2 [2]) was “metabolite_detected” and the Drug metabolism (Cytochrome P450 4F3) was “metabolite_detected”. The Drug metabolism (Cytochrome P450 1A1 [3]) was “metabolite_detected”, the Drug metabolism (Cytochrome P450 2C19 [4]) was “metabolite_detected” and the Drug metabolism (Cytochrome P450 3A4 [5]) was “metabolite_detected”. For the same molecule, the Drug metabolism (Cytochrome P450 2J2) was “metabolite_detected”, the Drug metabolism (Liver microsome [6]) was “metabolite_detected” and the Drug metabolism (Liver microsome [7]) was “metabolite_detected”. The Drug metabolism (Liver microsome [8]) was “metabolite_detected”, the Drug metabolism (Liver microsome [9]) was “metabolite_detected” and the Drug metabolism (Liver microsome [10]) was “metabolite_detected”. For the same molecule, the Compound recovery (Liver microsome [11]) was 5.12%, the Compound recovery [12] was 3.42% and the Compound recovery (Cytochrome P450 1A1 [13]) was 1.96%. For the same molecule, the Compound recovery (Cytochrome P450 1A2 [14]) was 0.23%, the Compound recovery (Cytochrome P450 2C9) was “below level of quantification” and the Compound recovery (Cytochrome P450 2C19 [15]) was 5.91%. For the same molecule, the Compound recovery (Cytochrome P450 3A4 [16]) was 22.1% and the Compound recovery (Cytochrome P450 3A5 [17]) was 0.15%.
